Experimental data: patent US20150105252A1, “SUBSTITUTED PYRAZOLES AS HERBICIDES” (E I DU PONT DE NEMOURS AND COMPANY, priority 2013, published 2015)

Assays:
giant foxtail = assay: Test F preemergence; type: in vivo, Setaria faberii
Summary of the method: (§1)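 Plant response is scored by eye relative to controls on a 0 to 100 scale, where 100 means complete control. Preemergence applications were made to seeded silt loam; postemergence ones to seedlings 2 to 18 cm high. Greenhouse holding time was 14 to 21 days.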

lambsquarters = assay: Test F preemergence; type: in vivo, Chenopodium album
Summary of the method: as §1

speedwell [1] = assay: Test D preemergence; type: in vivo, Veronica persica; conditions: scale 0 to 100
From the text: (§2) Seeds of plant species selected from bluegrass (annual bluegrass, Poa annua), blackgrass (Alopecurus myosuroides), canarygrass (littleseed canarygrass, Phalaris minor), chickweed (common chickweed, Stellaria media), galium (catchweed bedstraw, Galium aparine), bromegrass, downy (downy bromegrass, Bromus tectorum), field poppy (Papaver rhoeas), field violet (Viola arvensis), foxtail, green (green foxtail, Setaria viridis), deadnettle (henbit deadnettle, Lamium amplexicaule), ryegrass, Italian (Italian ryegrass, Lolium multiflorum), kochia (Kochia scoparia), lambsquarters (Chenopodium album), oilseed rape (Brassica napus), pigweed (redroot pigweed, Amaranthus retroflexus), chamomile (scentless chamomile, Matricaria inodora), speedwell (bird's-eye speedwell, Veronica persica), barley, spring (spring barley, Hordeum vulgare), wheat, spring (spring wheat, Triticum aestivum), buckwheat, wild (wild buckwheat, Polygonum convolvulus), mustard, wild (wild mustard, Sinapis arvensis), oat, wild (wild oat, Avena fatua), radish, wild (wild radish, Raphanus raphanistrum), windgrass (Apera spica-venti), Russian thistle (Salsola kali), barley, winter (winter barley, Hordeum vulgare), and wheat, winter (winter wheat, Triticum aestivum) were planted into a silt loam soil and treated preemergence with test chemicals formulated in a non-phytotoxic solvent mixture which included a surfactant.
(§3) At the same time, these species were planted in pots containing Redi-Earth® planting medium (Scotts Company, 14111 Scottslawn Road, Marysville, Ohio 43041) comprising spaghnum peat moss, vermiculite, wetting agent and starter nutrients and treated with postemergence applications of the test chemicals formulated in the same manner. Plants ranged in height from 2 to 18 cm (1- to 4-leaf stage). Treated plants and controls were maintained in a controlled growth environment for 14 to 21 days after which time all species were compared to controls and visually evaluated. Plant response ratings, summarized in Table D, are based on a scale of 0 to 100 where 0 is no effect and 100 is complete control. A dash (-) response means no test result.

bromegrass, downy = assay: Test D postemergence; type: in vivo, Bromus tectorum; conditions: scale 0 to 100
From the text: as §2, §3

soybean = assay: Test F preemergence; type: in vivo, Glycine max
Summary of the method: as §1

hairy beggarticks = assay: Test F preemergence; type: in vivo, Bidens pilosa
Summary of the method: as §1

kochia [2] = assay: Test F preemergence; type: in vivo, Kochia scoparia
Summary of the method: as §1

canarygrass = assay: Test D postemergence; type: in vivo, Phalaris minor; conditions: scale 0 to 100
Summary of the method: (§4)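 Whole-plant herbicidal activity; pre- and postemergence sprays. Soil: silt loam (pre); peat/vermiculite medium (post, 1–4 leaf). Assessment: 14–21 days, visual, 0 = no effect, 100 = complete control.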

dayflower, VA = assay: Test F preemergence; type: in vivo, Commelina virginica
Summary of the method: as §1

johnsongrass = assay: Test F preemergence; type: in vivo, Sorghum halepense
Summary of the method: as §1

morningglory = assay: Test F preemergence; type: in vivo, Ipomoea coccinea
Summary of the method: as §1

chickweed = assay: Test D postemergence; type: in vivo, Stellaria media; conditions: scale 0 to 100
From the text: as §2, §3

kochia [3] = assay: Test D preemergence; type: in vivo, Kochia scoparia; conditions: scale 0 to 100
Summary of the method: as §4

speedwell [4] = assay: Test D postemergence; type: in vivo, Veronica persica; conditions: scale 0 to 100
Summary of the method: as §4

[5] = Preemergence, 31 g ai/ha, scale 0 to 100
[6] = Preemergence, 62 g ai/ha, scale 0 to 100
[7] = Preemergence, 125 g ai/ha, scale 0 to 100
[8] = preemergence, 8 g ai/ha, scale 0 to 100, 100 is complete control
[9] = preemergence, 16 g ai/ha, scale 0 to 100, 100 is complete control

CCc1cc(C(=O)NCC(F)(F)F)nn1Cc1ccnc(C(F)(F)F)c1 [Compound 78, 5-ethyl-N-(2,2,2-trifluoroethyl)-1-[[(2-trifluoromethyl)-4-pyridinyl]methyl]-1H-pyrazole-3-carboxamide]
0: Plant response rating, Soybean (soybean; [8]) | Plant response rating, Soybean (soybean; [9]) | Plant response rating, Hairy Beggarticks (hairy beggarticks; [8]) | Plant response rating, Dayflower, VA (dayflower, VA; [8]) | Plant response rating, Dayflower, VA (dayflower, VA; [9]) | Plant response rating, Morningglory (morningglory; [8])
35: Plant response rating, Hairy Beggarticks (hairy beggarticks; [6])
65: Plant response rating, Lambsquarters (lambsquarters; [9]) | Plant response rating, Kochia (kochia [2]; [9])
15: Bromegrass, Downy plant response rating (bromegrass, downy; postemergence, 62 g ai/ha) | Canarygrass plant response rating (canarygrass; Postemergence, 125 g ai/ha)
80: Plant response rating, Soybean (soybean; [6]) | Plant response rating, Hairy Beggarticks (hairy beggarticks; [7]) | Chickweed plant response rating (chickweed; Postemergence, 250 g ai/ha) | Speedwell plant response rating (speedwell [4]; Postemergence, 125 g ai/ha)
70: Chickweed plant response rating (chickweed; Postemergence, 125 g ai/ha)
100: Plant response rating, Giant Foxtail (giant foxtail; [5]) | Plant response rating, Giant Foxtail (giant foxtail; [6]) | Plant response rating, Giant Foxtail (giant foxtail; [7]) | Plant response rating, Lambsquarters (lambsquarters; [5]) | Plant response rating, Lambsquarters (lambsquarters; [6]) | Plant response rating, Lambsquarters (lambsquarters; [7]) | Plant response rating, Speedwell (speedwell [1]; 31 g ai/ha) | Plant response rating, Speedwell (speedwell [1]; 62 g ai/ha) | Plant response rating, Speedwell (speedwell [1]; 125 g ai/ha) | Plant response rating, Speedwell (speedwell [1]; 250 g ai/ha) | Plant response rating, Kochia (kochia [2]; [5]) | Plant response rating, Kochia (kochia [2]; [6]) | Plant response rating, Kochia (kochia [2]; [7]) | Plant response rating, Dayflower, VA (dayflower, VA; [7]) | Plant response rating, Johnsongrass (johnsongrass; [7]) | Plant response rating, Morningglory (morningglory; [5]) | Plant response rating, Morningglory (morningglory; [7]) | Plant response rating, Kochia (kochia [3]; 62 g ai/ha) | Plant response rating, Kochia (kochia [3]; 125 g ai/ha) | Plant response rating, Kochia (kochia [3]; 250 g ai/ha)
20: Bromegrass, Downy plant response rating (bromegrass, downy; Postemergence, 125 g ai/ha) | Plant response rating, Hairy Beggarticks (hairy beggarticks; [9]) | Plant response rating, Johnsongrass (johnsongrass; [8]) | Plant response rating, Johnsongrass (johnsongrass; [9])
90: Plant response rating, Morningglory (morningglory; [6]) | Speedwell plant response rating (speedwell [4]; Postemergence, 250 g ai/ha)
25: Bromegrass, Downy plant response rating (bromegrass, downy; Postemergence, 250 g ai/ha) | Plant response rating, Hairy Beggarticks (hairy beggarticks; [5]) | Canarygrass plant response rating (canarygrass; Postemergence, 250 g ai/ha) | Chickweed plant response rating (chickweed; Postemergence, 31 g ai/ha)
95: Plant response rating, Soybean (soybean; [5]) | Plant response rating, Soybean (soybean; [7]) | Plant response rating, Dayflower, VA (dayflower, VA; [6]) | Plant response rating, Johnsongrass (johnsongrass; [6]) | Plant response rating, Kochia (kochia [3]; 31 g ai/ha)
5: Plant response rating, Giant Foxtail (giant foxtail; [8]) | Canarygrass plant response rating (canarygrass; Postemergence, 31 g ai/ha)
50: Plant response rating, Giant Foxtail (giant foxtail; [9]) | Plant response rating, Lambsquarters (lambsquarters; [8]) | Plant response rating, Dayflower, VA (dayflower, VA; [5]) | Chickweed plant response rating (chickweed; postemergence, 62 g ai/ha)
30: Plant response rating, Johnsongrass (johnsongrass; [5])
40: Plant response rating, Kochia (kochia [2]; [8]) | Plant response rating, Morningglory (morningglory; [9])
10: Bromegrass, Downy plant response rating (bromegrass, downy; Postemergence, 31 g ai/ha) | Canarygrass plant response rating (canarygrass; postemergence, 62 g ai/ha)
60: Speedwell plant response rating (speedwell [4]; postemergence, 62 g ai/ha)
45: Speedwell plant response rating (speedwell [4]; Postemergence, 31 g ai/ha)

CCCc1cc(C(=O)NCC(F)(F)F)nn1Cc1ccnc(C(F)(F)F)c1 [Compound 105]
75: Plant response rating, Johnsongrass (johnsongrass; [5])
40: Plant response rating, Hairy Beggarticks (hairy beggarticks; [7]) | Canarygrass plant response rating (canarygrass; Postemergence, 250 g ai/ha) | Plant response rating, Dayflower, VA (dayflower, VA; [9])
70: Chickweed plant response rating (chickweed; Postemergence, 125 g ai/ha) | Speedwell plant response rating (speedwell [4]; Postemergence, 125 g ai/ha)
55: Chickweed plant response rating (chickweed; postemergence, 62 g ai/ha)
30: Bromegrass, Downy plant response rating (bromegrass, downy; Postemergence, 250 g ai/ha)
65: Plant response rating, Giant Foxtail (giant foxtail; [9])
10: Plant response rating, Giant Foxtail (giant foxtail; [8]) | Bromegrass, Downy plant response rating (bromegrass, downy; Postemergence, 31 g ai/ha) | Canarygrass plant response rating (canarygrass; Postemergence, 31 g ai/ha)
95: Plant response rating, Morningglory (morningglory; [7]) | Plant response rating, Kochia (kochia [3]; 31 g ai/ha) | Speedwell plant response rating (speedwell [4]; Postemergence, 250 g ai/ha)
50: Plant response rating, Dayflower, VA (dayflower, VA; [5])
15: Bromegrass, Downy plant response rating (bromegrass, downy; postemergence, 62 g ai/ha) | Canarygrass plant response rating (canarygrass; postemergence, 62 g ai/ha)
35: Plant response rating, Lambsquarters (lambsquarters; [8]) | Plant response rating, Lambsquarters (lambsquarters; [9])
20: Bromegrass, Downy plant response rating (bromegrass, downy; Postemergence, 125 g ai/ha) | Plant response rating, Hairy Beggarticks (hairy beggarticks; [6]) | Plant response rating, Morningglory (morningglory; [8]) | Chickweed plant response rating (chickweed; Postemergence, 31 g ai/ha)
100: Plant response rating, Giant Foxtail (giant foxtail; [5]) | Plant response rating, Giant Foxtail (giant foxtail; [6]) | Plant response rating, Giant Foxtail (giant foxtail; [7]) | Plant response rating, Lambsquarters (lambsquarters; [5]) | Plant response rating, Lambsquarters (lambsquarters; [6]) | Plant response rating, Lambsquarters (lambsquarters; [7]) | Plant response rating, Speedwell (speedwell [1]; 31 g ai/ha) | Plant response rating, Speedwell (speedwell [1]; 62 g ai/ha) | Plant response rating, Speedwell (speedwell [1]; 125 g ai/ha) | Plant response rating, Speedwell (speedwell [1]; 250 g ai/ha) | Plant response rating, Soybean (soybean; [5]) | Plant response rating, Soybean (soybean; [7]) | Plant response rating, Kochia (kochia [2]; [5]) | Plant response rating, Kochia (kochia [2]; [6]) | Plant response rating, Kochia (kochia [2]; [7]) | Plant response rating, Kochia (kochia [3]; 62 g ai/ha) | Plant response rating, Kochia (kochia [3]; 125 g ai/ha) | Plant response rating, Kochia (kochia [3]; 250 g ai/ha)
80: Plant response rating, Soybean (soybean; [6]) | Plant response rating, Kochia (kochia [2]; [9]) | Plant response rating, Dayflower, VA (dayflower, VA; [6]) | Chickweed plant response rating (chickweed; Postemergence, 250 g ai/ha) | Speedwell plant response rating (speedwell [4]; postemergence, 62 g ai/ha)
60: Speedwell plant response rating (speedwell [4]; Postemergence, 31 g ai/ha)
90: Plant response rating, Morningglory (morningglory; [6])
98: Plant response rating, Dayflower, VA (dayflower, VA; [7]) | Plant response rating, Johnsongrass (johnsongrass; [6]) | Plant response rating, Johnsongrass (johnsongrass; [7])
0: Plant response rating, Soybean (soybean; [8]) | Plant response rating, Soybean (soybean; [9]) | Plant response rating, Hairy Beggarticks (hairy beggarticks; [5]) | Plant response rating, Hairy Beggarticks (hairy beggarticks; [8]) | Plant response rating, Hairy Beggarticks (hairy beggarticks; [9]) | Plant response rating, Kochia (kochia [2]; [8]) | Plant response rating, Dayflower, VA (dayflower, VA; [8]) | Plant response rating, Johnsongrass (johnsongrass; [8])
25: Canarygrass plant response rating (canarygrass; Postemergence, 125 g ai/ha) | Plant response rating, Johnsongrass (johnsongrass; [9]) | Plant response rating, Morningglory (morningglory; [5]) | Plant response rating, Morningglory (morningglory; [9])
